Earlier results as cited in patent US20190269715A1, “COMPOSITIONS AND METHOD OF USE OF A-TYPE PROCYANIDINS” (MARS, INCORPORATED, priority 2004, published 2019).

Tested on: tumor
Settings: cited from earlier work

**Q.** For Nobotanin, which anti-tumor activity is on record?
**A.** anti-tumor activity
